ChEMBL document CHEMBL1146058, “Discovery of trans-3,4'-bispyridinylethylenes as potent and novel inhibitors of protein kinase B (PKB/Akt) for the treatment of cancer: Synthesis and biological evaluation” (Bioorg Med Chem Lett, 2006)
Each block holds one molecule with its values, some of them ahead of it.

Assays:
[1] = target: T1, RAC-alpha serine/threonine-protein kinase (Homo sapiens, UniProt P31749); test: Inhibition of Akt1 at 5.33 uM
[2] = Plasma clearance in monkey at 2.5 mg/kg; type: ADME, organism-based, Macaca mulatta; set-up: dose 2.5 mg/kg; conditions: rhesus monkey
[3] = Volume of distribution in monkey at 2.5 mg/kg; type: ADME, organism-based, Macaca mulatta; set-up: dose 2.5 mg/kg; conditions: rhesus monkey, in vivo, read-out: Vdss
[4] = Cmax in monkey at 2.5 mg/kg; type: ADME, organism-based, Macaca mulatta; set-up: dose 2.5 mg/kg; conditions: rhesus monkey, in vivo
[5] = Half life in monkey at 2.5 mg/kg; type: ADME, organism-based, Macaca mulatta; set-up: dose 2.5 mg/kg; conditions: rhesus monkey, in vivo
[6] = Cmax in mouse at 30 mg/kg; type: ADME, organism-based; set-up: dose 30 mg/kg; conditions: in vivo
[7] = tested on: MIA PaCa-2; test: Antiproliferative activity against MiaPaCa-2 cells by MTT assay; type: functional, cell-based; conditions: Homo sapiens
[8] = Cmax in dog at 2.5 mg/kg; type: ADME, organism-based, Canis lupus familiaris; set-up: dose 2.5 mg/kg; conditions: in vivo
[9] = Half life in mouse at 30 mg/kg; type: ADME, organism-based; set-up: dose 30 mg/kg; conditions: in vivo
[10] = Oral bioavailability in rat at 5 mg/kg; type: ADME, organism-based; conditions: in vivo
[11] = Plasma clearance in mouse at 30 mg/kg; type: ADME, organism-based; set-up: dose 30 mg/kg
[12] = Oral bioavailability in mouse at 30 mg/kg; type: ADME, organism-based; conditions: in vivo
[13] = Plasma clearance in rat at 5 mg/kg; type: ADME, organism-based; set-up: dose 5 mg/kg
[14] = Cmax in rat at 5 mg/kg; type: ADME, organism-based; set-up: dose 5 mg/kg; conditions: in vivo
[15] = Volume of distribution in dog at 2.5 mg/kg; type: ADME, organism-based, Canis lupus familiaris; set-up: dose 2.5 mg/kg; conditions: in vivo, read-out: Vdss
[16] = Oral bioavailability in monkey at 2.5 mg/kg; type: ADME, organism-based, Macaca mulatta; conditions: rhesus monkey, in vivo
[17] = Half life in dog at 2.5 mg/kg; type: ADME, organism-based, Canis lupus familiaris; set-up: dose 2.5 mg/kg; conditions: in vivo
[18] = Plasma clearance in dog at 2.5 mg/kg; type: ADME, organism-based, Canis lupus familiaris; set-up: dose 2.5 mg/kg
[19] = Volume of distribution in mouse at 30 mg/kg; type: ADME, organism-based; set-up: dose 30 mg/kg; conditions: in vivo, read-out: Vdss
[20] = Oral bioavailability in dog at 2.5 mg/kg; type: ADME, organism-based, Canis lupus familiaris; conditions: in vivo
[21] = Half life in rat at 5 mg/kg; type: ADME, organism-based; set-up: dose 5 mg/kg; conditions: in vivo
[22] = Volume of distribution in rat at 5 mg/kg; type: ADME, organism-based; set-up: dose 5 mg/kg; conditions: in vivo, read-out: Vdss
[23] = Oral bioavailability in mouse at 10 mg/kg; type: ADME, organism-based; conditions: in vivo
[24] = Plasma clearance in mouse at 10 mg/kg; type: ADME, organism-based; set-up: dose 10 mg/kg
[25] = Cmax in mouse at 10 mg/kg; type: ADME, organism-based; set-up: dose 10 mg/kg; conditions: in vivo
[26] = Half life in mouse at 10 mg/kg; type: ADME, organism-based; set-up: dose 10 mg/kg; conditions: in vivo
[27] = Volume of distribution in mouse at 10 mg/kg; type: ADME, organism-based; set-up: dose 10 mg/kg; conditions: in vivo, read-out: Vdss
[28] = target: T1, RAC-alpha serine/threonine-protein kinase; test: Inhibition of Akt1 using 10 uM ATP
[29] = target: T1, RAC-alpha serine/threonine-protein kinase; test: Inhibition of Akt1 at 50 uM
[30] = target: T1, RAC-alpha serine/threonine-protein kinase; test: Inhibition of Akt1 at 0.99 uM

T1 sequence (P31749 whole entry): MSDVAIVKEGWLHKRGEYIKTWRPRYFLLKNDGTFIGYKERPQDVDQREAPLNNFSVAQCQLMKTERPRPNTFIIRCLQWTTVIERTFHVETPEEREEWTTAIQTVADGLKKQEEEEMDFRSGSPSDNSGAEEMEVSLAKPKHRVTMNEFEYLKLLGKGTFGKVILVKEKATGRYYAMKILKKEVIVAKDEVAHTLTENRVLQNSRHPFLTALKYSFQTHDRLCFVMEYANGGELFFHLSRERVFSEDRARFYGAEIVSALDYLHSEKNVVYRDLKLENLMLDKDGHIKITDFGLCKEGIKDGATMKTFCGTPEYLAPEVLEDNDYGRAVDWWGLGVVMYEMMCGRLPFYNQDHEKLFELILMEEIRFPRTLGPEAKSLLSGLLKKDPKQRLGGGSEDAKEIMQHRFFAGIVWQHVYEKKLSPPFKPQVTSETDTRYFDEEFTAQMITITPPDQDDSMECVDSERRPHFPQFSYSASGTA

Structure (SMILES): N[C@H](COc1cccc(/C=C/c2ccncc2)c1)Cc1c[nH]c2ccccc12
inhibition [1]: 35%

Structure (SMILES): N[C@H](COc1cc(/C=C/c2ccncc2)ccn1)Cc1c[nH]c2ccccc12
inhibition [1]: 16%

Structure (SMILES): N[C@H](COc1cncc(/C=C/c2ccncc2)c1)Cc1c[nH]c2ccccc12
clearance [2]: 26.7 mL/min/kg
Vd [3]: 9.1 L/kg
Cmax [4]: 40 ng/mL
half-life [5]: 3.7 h
Cmax [6]: 2780 ng/mL
IC50 [7]: 12 µM
Cmax [8]: 100 ng/mL
half-life [9]: 0.8 h
bioavailability [10]: 21%
clearance [11]: 95 mL/min/kg
bioavailability [12]: 39%
clearance [13]: 20 mL/min/kg
Cmax [14]: 300 ng/mL
Vd [15]: 12.8 L/kg
bioavailability [16]: 12%
half-life [17]: 3.2 h
clearance [18]: 41.7 mL/min/kg
Vd [19]: 6.5 L/kg
bioavailability [20]: 52%
half-life [21]: 3.1 h
Vd [22]: 5.2 L/kg

Structure (SMILES): N[C@H](COc1cnc(Cl)c(/C=C/c2ccncc2)c1)Cc1c[nH]c2ccccc12
clearance [2]: 16.2 mL/min/kg
Vd [3]: 4.2 L/kg
Cmax [4]: 60 ng/mL
half-life [5]: 3 h
Cmax [6]: 940 ng/mL
Cmax [8]: 120 ng/mL
half-life [9]: 0.8 h
bioavailability [10]: 17%
clearance [11]: 68.3 mL/min/kg
bioavailability [12]: 11%
clearance [13]: 36.7 mL/min/kg
Cmax [14]: 60 ng/mL
Vd [15]: 11.1 L/kg
bioavailability [16]: 12%
half-life [17]: 5.4 h
clearance [18]: 23.3 mL/min/kg
Vd [19]: 4.8 L/kg
bioavailability [20]: 45%
half-life [21]: 3.1 h
Vd [22]: 9.9 L/kg

inhibition [1]: 4%
Structure (SMILES): N[C@H](COc1cncc(/C=C/c2ccncc2)c1)C(=O)Nc1ccc2ccccc2c1

Structure (SMILES): N[C@H](CCc1cnc(Cl)c(/C=C/c2ccncc2)c1)Cc1c[nH]c2ccccc12
bioavailability [23]: < 10%
clearance [24]: 288 mL/min/kg
Cmax [25]: 90 ng/mL
half-life [26]: 0.2 h
Vd [27]: 4.9 L/kg

Structure (SMILES): N[C@H](CNc1cnc(Cl)c(/C=C/c2ccncc2)c1)Cc1c[nH]c2ccccc12
bioavailability [23]: 0%
clearance [24]: 190 mL/min/kg
Cmax [25]: < 20 ng/mL
half-life [26]: 0.6 h
Vd [27]: 9.5 L/kg

IC50 [28]: > 50 µM
Structure (SMILES): C(=C\c1cncc(OCCCc2c[nH]c3ccccc23)c1)/c1ccncc1

bioavailability [10]: 43%
clearance [13]: 16.7 mL/min/kg
Cmax [14]: 620 ng/mL
half-life [21]: 2.5 h
Vd [22]: 3.6 L/kg
Structure (SMILES): N[C@H](COc1cncc(/C=C/c2ccncc2)c1)Cc1csc2ccccc12

inhibition [1]: 11%
Structure (SMILES): N[C@H](COc1cncc(/C=C/c2ccncc2)c1)C(=O)O

inhibition [29]: 29%
Structure (SMILES): N[C@H](COc1cnccc1/C=C/c1ccncc1)Cc1ccccc1

inhibition [30]: 73%
Structure (SMILES): N[C@@H](Cc1c[nH]cn1)C(=O)Nc1cncc(/C=C/c2ccncc2)c1

Structure (SMILES): N[C@H](COc1cncc(/C=C/c2ccccc2)c1)Cc1c[nH]c2ccccc12
inhibition [1]: 17%
